Among the data in patent US9650379B2 (CHONG KUN DANG PHARMACEUTICAL CORP., priority 2013, dated 2017) are IC50 values, retold here.

Molecules are shown by their SMILES. pIC50: −log10 of the molar value.

For one assay, the target named is T1, HDAC1 (Homo sapiens, UniProt Q13547).
T1 construct: purchased Enzolifesciences BML-AK511
The experiment in a line: Inhibition of HDAC1 activity (HDAC1 fluorimetric drug discovery assay kit). The class given is biochemical. To be noted: test concentrations 100, 1000 and 10000 nM; 37° C., 60 minutes. The method, then:
(§1) Assays were performed using a HDAC1 fluorimetric drug discovery assay kit (Enzolifesciences: BML-AK511) and a HDAC6 human recombinant (Calbiochem: 382180). The assay mixture of the kit was treated with a test compound at concentrations of 100, 1000 and 10000 nM for HDAC1 assay and concentrations of 0.1, 1, 10, 100 and 1000 nM for HDAC6 assay. The treated assay mixture was allowed to react at 37° C. for 60 minutes, and then was treated with a developer and allowed to stand at 37° C. for 30 minutes, followed by quantification of the fluorescence.

The target in the next assay is T2, HDAC6 human recombinant (Homo sapiens, UniProt Q9UBN7).
T2 construct: purchased Calbiochem 382180
T2 sequence (Q9UBN7 1-1215): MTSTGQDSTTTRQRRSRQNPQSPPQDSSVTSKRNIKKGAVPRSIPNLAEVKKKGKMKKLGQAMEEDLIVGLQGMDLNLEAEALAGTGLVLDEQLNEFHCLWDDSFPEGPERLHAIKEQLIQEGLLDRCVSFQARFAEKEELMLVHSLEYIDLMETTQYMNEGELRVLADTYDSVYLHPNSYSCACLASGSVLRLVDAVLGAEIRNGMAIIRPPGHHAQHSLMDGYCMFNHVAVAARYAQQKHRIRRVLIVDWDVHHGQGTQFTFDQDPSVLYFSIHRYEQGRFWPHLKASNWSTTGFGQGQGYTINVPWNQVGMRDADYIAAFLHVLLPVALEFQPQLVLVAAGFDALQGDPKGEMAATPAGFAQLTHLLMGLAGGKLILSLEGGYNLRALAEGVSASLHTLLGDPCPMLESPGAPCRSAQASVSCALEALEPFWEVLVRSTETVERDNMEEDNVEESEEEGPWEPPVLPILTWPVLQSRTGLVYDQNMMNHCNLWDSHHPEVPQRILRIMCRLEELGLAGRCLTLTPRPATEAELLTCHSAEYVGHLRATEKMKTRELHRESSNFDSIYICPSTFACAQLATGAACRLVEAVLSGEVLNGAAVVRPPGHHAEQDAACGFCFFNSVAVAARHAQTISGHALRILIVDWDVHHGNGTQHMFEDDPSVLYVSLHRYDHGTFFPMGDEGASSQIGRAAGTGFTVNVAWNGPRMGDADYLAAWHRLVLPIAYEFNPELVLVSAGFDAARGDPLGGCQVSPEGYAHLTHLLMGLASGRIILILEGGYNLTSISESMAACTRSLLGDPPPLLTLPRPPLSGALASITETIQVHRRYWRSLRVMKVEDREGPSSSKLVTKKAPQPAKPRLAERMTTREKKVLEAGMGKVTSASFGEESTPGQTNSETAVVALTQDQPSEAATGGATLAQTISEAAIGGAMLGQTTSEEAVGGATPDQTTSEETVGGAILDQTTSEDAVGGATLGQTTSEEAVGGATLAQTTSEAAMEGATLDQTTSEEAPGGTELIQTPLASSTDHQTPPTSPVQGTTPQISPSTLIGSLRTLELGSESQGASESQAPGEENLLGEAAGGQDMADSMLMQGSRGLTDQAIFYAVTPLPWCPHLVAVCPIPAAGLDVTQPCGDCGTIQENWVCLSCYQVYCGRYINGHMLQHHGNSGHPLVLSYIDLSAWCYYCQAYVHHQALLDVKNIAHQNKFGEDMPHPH
The experiment in a line: Inhibition of HDAC6 activity (fluorimetric assay). The class given is biochemical. Conditions: test concentrations 0.1, 1, 10, 100 and 1000 nM; 37° C., 60 minutes. How it is done: as §1

T1 sequence (Q13547 whole entry): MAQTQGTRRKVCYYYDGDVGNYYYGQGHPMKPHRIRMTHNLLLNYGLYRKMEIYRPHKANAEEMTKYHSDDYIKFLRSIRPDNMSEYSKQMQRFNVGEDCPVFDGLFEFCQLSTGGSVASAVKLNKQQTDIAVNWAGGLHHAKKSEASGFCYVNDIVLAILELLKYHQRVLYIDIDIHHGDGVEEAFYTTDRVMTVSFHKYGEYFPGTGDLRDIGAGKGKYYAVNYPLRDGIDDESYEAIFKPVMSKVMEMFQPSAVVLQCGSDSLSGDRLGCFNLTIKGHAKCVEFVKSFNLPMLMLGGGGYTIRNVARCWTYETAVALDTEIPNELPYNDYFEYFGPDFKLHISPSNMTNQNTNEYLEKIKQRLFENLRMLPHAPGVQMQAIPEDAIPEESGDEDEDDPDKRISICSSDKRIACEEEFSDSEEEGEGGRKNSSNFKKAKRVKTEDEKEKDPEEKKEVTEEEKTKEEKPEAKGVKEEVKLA

As for `CN1CCN(Cc2cccc(CN3CCC(c4cnc5c(ccn5Cc5ccc(C(=O)NO)cc5)c4)CC3)c2)CC1` [Compound 879, N-hydroxy-4-((5-(1-(3-((4-methylpiperazin-1-yl)methyl)benzyl)piperidin-4-yl)-1H-pyrrolo[2,3-b]pyridin-1-yl)methyl)benzamide], the pIC50 was 5.98 on HDAC1 and 8.12 on HDAC6 human recombinant.

Turning to `CCc1cnc(N2CCN(c3ccnc4c3ccn4Cc3ccc(C(=O)NO)cc3)CC2)nc1` [Compound 702, 4-((4-(4-(5-ethylpyrimidin-2-yl)piperazin-1-yl)-1H-pyrrolo[2,3-b]pyridin-1-yl)methyl)-N-hydroxybenzamide], the negative logarithm of the IC50 (pIC50) against HDAC1 is 5.98; at HDAC6 human recombinant, 7.80.

In the case of `CC(C)(C)OC(=O)N1CCN(c2ccnc3c2ccn3Cc2ccc(C(=O)NO)cc2)CC1` [Compound 212], the pIC50 was 6.05 on HDAC1 and 7.85 on HDAC6 human recombinant.

Turning to `CC(C)(F)C(=O)N1CCC(c2ccnc3c2ccn3Cc2ccc(C(=O)NO)cc2)CC1` [Compound 858, 4-((4-(1-(2-fluoro-2-methylpropanoyl)piperidin-4-yl)-1H-pyrrolo[2,3-b]pyridin-1-yl)methyl)-N-hydroxybenzamide], the figures for the pIC50 against HDAC1 and on HDAC6 human recombinant were 7.22 and 8.44, respectively.

As for `O=C(NO)c1ccc(Cn2ccc3ccc(C4=CCOCC4)nc32)cc1` [Compound 743, 4-((6-(3,6-dihydro-2H-pyran-4-yl)-1H-pyrrolo[2,3-b]pyridin-1-yl)methyl)-N-hydroxybenzamide], the pIC50 at HDAC1 is 6.72; on HDAC6 human recombinant, 7.60.

For the molecule `CC(C)(F)CN1CC=C(c2ccnc3c2ccn3Cc2ccc(C(=O)NO)cc2)CC1` [Compound 630, 4-((4-(1-(2-fluoro-2-methylpropyl)-1,2,3,6-tetrahydropyridin-4-yl)-1H-pyrrolo[2,3-b]pyridin-1-yl)methyl)-N-hydroxybenzamide], the negative-log IC50 (pIC50) against HDAC1 was 5.96; at HDAC6 human recombinant it was 8.10.

For the molecule `O=C(NO)c1ccc(Cn2ccc3c(N4CCN(Cc5cccnc5)CC4)ccnc32)cc1` [Compound 849, N-hydroxy-4-((4-(4-(pyridin-3-ylmethyl)piperazin-1-yl)-1H-pyrrolo[2,3-b]pyridin-1-yl)methyl)benzamide], the pIC50 is 6.54 against HDAC1 and 7.93 at HDAC6 human recombinant.

As for `O=C(NO)c1ccc(Cn2ccc3cc(C4CCN(Cc5ccccn5)CC4)cnc32)cc1` [Compound 844], the pIC50 on HDAC1 was 6.26; on HDAC6 human recombinant, 8.47.

Turning to `CC(C)(F)CN1CCC(c2cnc3c(ccn3Cc3ccc(C(=O)NO)cc3)c2)CC1` [Compound 618, 4-((5-(1-(2-fluoro-2-methylpropyl)piperidin-4-yl)-1H-pyrrolo[2,3-b]pyridin-1-yl)methyl)-N-hydroxybenzamide], the negative logarithm of the IC50 (pIC50) is 5.89 on HDAC1 and 7.80 at HDAC6 human recombinant.

Regarding `O=C(NO)c1ccc(Cn2ccc3c(N4CC5CCC(C4)N5Cc4cccnc4)ccnc32)cc1` [Compound 1019, N-hydroxy-4-((4-(8-(pyridin-3-ylmethyl)-3,8-diazabicyclo[3.2.1]octan-3-yl)-1H-pyrrolo[2,3-b]pyridin-1-yl)methyl)benzamide], the pIC50 against HDAC1 was 6.59; on HDAC6 human recombinant, 8.17.

In the case of `O=C(NO)c1ccc(Cn2ccc3cc(-c4ccc(F)cc4F)cnc32)cc1` [Compound 125, 4-((5-(2,4-difluorophenyl)-1H-pyrrolo[2,3-b]pyridin-1-yl)methyl)-N-hydroxybenzamide], the pIC50 on HDAC1 was 5.79; on HDAC6 human recombinant it was 7.28.

Consider `CC(C)(C)OC(=O)N1CCC(F)(CN2CCN(c3ccnc4c3ccn4Cc3ccc(C(=O)NO)cc3)CC2)CC1` [Compound 760, tert-butyl 4-fluoro-4-((4-(1-(4-(hydroxycarbamoyl)benzyl)-1H-pyrrolo[2,3-b]pyridin-4-yl)piperazin-1-yl)methyl)piperidine-1-carboxylate], for which the negative logarithm of the IC50 (pIC50) on HDAC1 is 5.49; on HDAC6 human recombinant, 7.43.

As to `O=C(NO)c1ccc(Cn2ccc3cc(N4CCC5(CC4)CN(Cc4ccccn4)C5)cnc32)cc1` [Compound 1126, N-hydroxy-4-((5-(2-(pyridin-2-ylmethyl)-2,7-diazaspiro[3.5]nonan-7-yl)-1H-pyrrolo[2,3-b]pyridin-1-yl)methyl)benzamide], the figures for the pIC50 against HDAC1 and on HDAC6 human recombinant were 6.19 and 8.91, respectively.

`CC(C)(O)CN1CCC(c2ccnc3c2ccn3Cc2ccc(C(=O)NO)cc2)CC1` [Compound 812, N-hydroxy-4-((4-(1-(2-hydroxy-2-methylpropyl)piperidin-4-yl)-1H-pyrrolo[2,3-b]pyridin-1-yl)methyl)benzamide]: the negative-log IC50 (pIC50) against HDAC1 was 6.82; on HDAC6 human recombinant, 8.30.

Consider `O=C(NO)c1ccc(Cn2ccc3cc(C4CCN(Cc5noc(C(F)(F)F)n5)CC4)cnc32)cc1` [Compound 845, N-hydroxy-4-((5-(1-((5-(trifluoromethyl)-1,2,4-oxadiazol-3-yl)methyl)piperidin-4-yl)-1H-pyrrolo[2,3-b]pyridin-1-yl)methyl)benzamide], for which the pIC50 against HDAC1 is 6.52; at HDAC6 human recombinant, 8.92.

As to `O=C(NO)c1ccc(Cn2ccc3cc(N4CCN(Cc5cccc(F)c5)CC4)cnc32)cc1` [Compound 851, 4-((5-(4-(3-fluorobenzyl)piperazin-1-yl)-1H-pyrrolo[2,3-b]pyridin-1-yl)methyl)-N-hydroxybenzamide], the pIC50 against HDAC1 is 5.71; on HDAC6 human recombinant, 7.90.

With `O=C(NO)c1ccc(Cn2ccc3cc(C4CCN(S(=O)(=O)c5ccccc5)CC4)cnc32)cc1` [Compound 876, N-hydroxy-4-((5-(1-(phenylsulfonyl)piperidin-4-yl)-1H-pyrrolo[2,3-b]pyridin-1-yl)methyl)benzamide], the pIC50 at HDAC1 is 5.55; on HDAC6 human recombinant, 7.38.

Take `CC(C)(F)C(=O)N1CCN(c2ccnc3c2ccn3Cc2ccc(C(=O)NO)cc2)CC1` [Compound 856, 4-((4-(4-(2-fluoro-2-methylpropanoyl)piperazin-1-yl)-1H-pyrrolo[2,3-b]pyridin-1-yl)methyl)-N-hydroxybenzamide]: the pIC50 against HDAC1 is 7.10; at HDAC6 human recombinant it was 8.64.

For `CN1CC=C(c2ccnc3c2ccn3Cc2ccc(C(=O)NO)cc2)CC1` [Compound 723, N-hydroxy-4-((4-(1-methyl-1,2,3,6-tetrahydropyridin-4-yl)-1H-pyrrolo[2,3-b]pyridin-1-yl)methyl)benzamide], the pIC50 against HDAC1 is 6.51; on HDAC6 human recombinant, 8.30.

As to `O=C(NO)c1ccc(Cn2ccc3cc(-c4ccc(F)cc4)cnc32)cc1` [Compound 104, 4-((5-(4-fluorophenyl)-1H-pyrrolo[2,3-b]pyridin-1-yl)methyl)-N-hydroxybenzamide], the pIC50 is 5.78 at HDAC1 and 9.15 on HDAC6 human recombinant.

In the case of `O=C(NO)c1ccc(Cn2ccc3c(N4CCN(Cc5cccc(F)c5)CC4)ccnc32)cc1` [Compound 848, 4-((4-(4-(3-fluorobenzyl)piperazin-1-yl)-1H-pyrrolo[2,3-b]pyridin-1-yl)methyl)-N-hydroxybenzamide], the pIC50 was 6.07 against HDAC1 and 8.04 on HDAC6 human recombinant.

With `CC(C)(C)CCN1CCC(c2cnc3c(ccn3Cc3ccc(C(=O)NO)cc3)c2)CC1` [Compound 864, 4-((5-(1-(3,3-dimethylbutyl)piperidin-4-yl)-1H-pyrrolo[2,3-b]pyridin-1-yl)methyl)-N-hydroxybenzamide], the pIC50 against HDAC1 is 5.76; at HDAC6 human recombinant, 7.74.

Take `O=C(NO)c1ccc(Cn2ccc3cc(C4CCN(Cc5cccc(C(F)(F)F)c5)CC4)cnc32)cc1` [Compound 871, N-hydroxy-4-((5-(1-(3-(trifluoromethyl)benzyl)piperidin-4-yl)-1H-pyrrolo[2,3-b]pyridin-1-yl)methyl)benzamide]: the negative-log IC50 (pIC50) against HDAC1 was 5.49; on HDAC6 human recombinant it was 7.03.
